Active and inactive are the calls of the source. The rule behind the calls is not given here.
Key:
Vero [1] = assay: Cytotoxicity against African green monkey Vero cells by MTT assay; format: cell-based; details: Chlorocebus sabaeus
HGC-27 [2] = assay: Induction of reactive oxygen species formation in HGC27 cells at 1.4 to 24 uM after 5 hrs using DCFH-DA probe by spectrofluorimetry; format: functional, cell-based; details: Homo sapiens
HEK293 = assay: Cytotoxicity against HEK293 cells by MTT assay; format: cell-based; details: Homo sapiens
HGC-27 [3] = assay: Induction of apoptosis in HGC27 cells assessed as increase in necrotic cells at 2 uM co-treated with autophagy inhibitor chloroquine after 24 hrs by Annexin-V-FITC/propidium iodide staining-based flow cytometry; format: functional, cell-based; details: Homo sapiens
HGC-27 [4] = assay: Induction of apoptosis in HGC27 cells assessed as apoptotic cells at 2.5 uM after 24 hrs by Annexin-V-FITC/propidium iodide staining-based flow cytometry (reference value: 6.7%); format: functional, Homo sapiens
HGC-27 [5] = assay: Induction of apoptosis in HGC27 cells assessed as apoptotic cells at 1 uM after 24 hrs by Annexin-V-FITC/propidium iodide staining-based flow cytometry (reference value: 6.7%); format: functional, Homo sapiens
HGC-27 [6] = assay: Induction of apoptosis in HGC27 cells at 8 uM after 24 hrs in presence of caspase 9 inhibitor Z-LEHD-FMK by Annexin-V-FITC/propidium iodide staining-based flow cytometry; format: functional, cell-based; details: Homo sapiens
HGC-27 [7] = assay: Induction of apoptosis in HGC27 cells at 2 uM co-treated with autophagy inhibitor chloroquine after 24 hrs by Annexin-V-FITC/propidium iodide staining-based flow cytometry; format: functional, cell-based; details: Homo sapiens
HGC-27 [8] = assay: Induction of apoptosis in HGC27 cells at 2 uM co-treated with autophagy inhibitor 3-MA after 24 hrs by Annexin-V-FITC/propidium iodide staining-based flow cytometry; format: functional, cell-based; details: Homo sapiens
HGC-27 [9] = assay: Induction of autophagy in HGC27 cells assessed as increase in LC3-2 level after 24 hrs by Western blotting method; format: functional, cell-based; details: Homo sapiens
HGC-27 [10] = assay: Induction of apoptosis in HGC27 cells at 8 uM after 24 hrs in presence of caspase 8 inhibitor Z-IETD-FMK by Annexin-V-FITC/propidium iodide staining-based flow cytometry; format: functional, cell-based; details: Homo sapiens
HGC-27 [11] = assay: Induction of apoptosis in HGC27 cells assessed as reduction in mitochondrial membrane potential at 2 and 8 uM after 24 hrs by JC-1 staining based flow cytometric analysis; format: functional, cell-based; details: Homo sapiens
[12] = Cell cycle arrest in HGC27 cells assessed as accumulation at G2/GM phase after 24 hrs at 500 nM by propidium idoide staining based flow cytometric analysis; format: functional; details: Homo sapiens, HGC-27
[13] = Cell cycle arrest in HGC27 cells assessed as decrease in S-phase population after 24 hrs at 5 uM by propidium idoide staining based flow cytometric analysis; format: functional; details: Homo sapiens, HGC-27
HGC-27 [14] = assay: Induction of apoptosis in HGC27 cells assessed as apoptotic cells after 24 hrs by Annexin-V-FITC/propidium iodide staining-based flow cytometry; format: functional, cell-based; details: Homo sapiens
HGC-27 [15] = assay: Induction of apoptosis in HGC27 cells at 8 uM after 24 hrs in presence of pan-caspase inhibitor Z-VAD-FMK by Annexin-V-FITC/propidium iodide staining-based flow cytometry; format: functional, cell-based; details: Homo sapiens
[16] = (§1) Cytotoxicity against HGC27 cells after 24 hrs by MTT assay; format: functional, cell-based; details: Homo sapiens, HGC-27, 24 h
HGC-27 [17] = assay: as §1; format: functional, cell-based; details: Homo sapiens
Vero [18] = assay: Cytotoxicity against African green monkey Vero cells assessed as cellular ATP level after 24 hrs by SRB assay; format: cell-based; details: Chlorocebus sabaeus
HGC-27 [19] = assay: Induction of apoptosis in HGC27 cells at 8 uM after 24 hrs in presence of cathepsin-B inhibitor-3 by Annexin-V-FITC/propidium iodide staining-based flow cytometry; format: functional, cell-based; details: Homo sapiens
HGC-27 [20] = assay: Induction of autophagy in HGC27 cells assessed as increase in LC3-2 level after 24 hrs by Western blotting method in presence of lysosomal dysfunction inducer PI; format: functional, cell-based; details: Homo sapiens
HeLa [21] = assay: Cytotoxicity against human HeLa cells assessed as inhibition of cell viability at 20 uM after 24 hrs by MTT assay; format: functional, cell-based
[22] = Cell cycle arrest in HGC27 cells assessed as decrease in G2/M phase population after 24 hrs at 5 uM by propidium idoide staining based flow cytometric analysis; format: functional; details: Homo sapiens, HGC-27
[23] = Cell cycle arrest in HGC27 cells assessed as accumulation at G0/G1 phase after 24 hrs at 5 uM by propidium idoide staining based flow cytometric analysis; format: functional; details: Homo sapiens, HGC-27
[24] = Cytotoxicity against HGC27 cells after 48 hrs by MTT assay; format: functional, cell-based; details: Homo sapiens, HGC-27, 48 h
[25] = Cytotoxicity against human U87 cells by MTT assay; format: functional, cell-based, U-87MG ATCC; details: U-87 MG
HGC-27 [26] = assay: Induction of apoptosis in HGC27 cells assessed as increase in necrotic cells at 2 uM co-treated with autophagy inhibitor 3-MA after 24 hrs by Annexin-V-FITC/propidium iodide staining-based flow cytometry; format: functional, cell-based; details: Homo sapiens
MDCK [27] = assay: Cytotoxicity against MDCK cells assessed as cellular ATP level after 24 hrs by SRB assay; format: cell-based; details: Canis lupus familiaris
HeLa [28] = assay: Cytotoxicity against human HeLa cells assessed as inhibition of cell viability at 100 uM after 24 hrs by MTT assay; format: functional, cell-based
[29] = Cytotoxicity against human T98 cells by MTT assay; format: functional, cell-based
HGC-27 [30] = assay: Induction of apoptosis in HGC27 cells assessed as necrotic cells at 8 uM after 24 hrs in presence of RIP1 inhibitor necrostatin-1 by Annexin-V-FITC/propidium iodide staining-based flow cytometry; format: functional, cell-based; details: Homo sapiens
HGC-27 [31] = assay: Induction of apoptosis in HGC27 cells assessed as apoptotic cells at 8 uM after 24 hrs by Annexin-V-FITC/propidium iodide staining-based flow cytometry (reference value: 6.7%); format: functional, Homo sapiens
HGC-27 [32] = assay: Induction of apoptosis in HGC27 cells assessed as necrotic cells at 8 uM after 24 hrs in presence of cathepsin-B inhibitor-3 by Annexin-V-FITC/propidium iodide staining-based flow cytometry; format: functional, cell-based; details: Homo sapiens
MDCK [33] = assay: Cytotoxicity against MDCK cells by MTT assay; format: cell-based; details: Canis lupus familiaris
HeLa [34] = assay: Cytotoxicity against human HeLa cells after 24 hrs by MTT assay; format: functional, cell-based
[35] = Cytotoxicity against HGC27 cells assessed as cellular ATP level after 24 hrs by SRB assay; format: functional, cell-based; details: Homo sapiens, HGC-27, 24 h

## O=c1c(Nc2cc(C(F)(F)F)cc(C(F)(F)F)c2)c(N[C@@H](c2ccccc2)C(O)(c2ccccc2)c2ccccc2)c1=O
Vero [1]
  IC50: 33.4 µM
HGC-27 [2]
  Activity: inactive
HEK293
  IC50: 9.03 µM
HGC-27 [3]
  Activity: Active
HGC-27 [4]
  Activity: 24.7%
HGC-27 [5]
  Activity: 2.4%
HGC-27 [6]
  Activity: inactive
HGC-27 [7]
  Activity: Active
HGC-27 [8]
  Activity: Active
HGC-27 [9]
  Activity: Active
HGC-27 [10]
  Activity: Active
HGC-27 [11]
  Activity: Active
[12]
  Activity: Active
[13]
  Activity: Active
HGC-27 [14]
  Activity: Dose-dependent effect
HGC-27 [15]
  Activity: Active
[16]
  IC50: 1.81 µM
HGC-27 [17]
  Activity: Dose-dependent effect
Vero [18]
  IC50: 73.9 µM
HGC-27 [19]
  Activity: Active
HGC-27 [20]
  Activity: Active
HeLa [21]
  inhibition: Active
[22]
  Activity: Active
[23]
  Activity: Active
[24]
  IC50: 0.66 µM
[25]
  IC50: 60.2 µM
HGC-27 [26]
  Activity: Active
MDCK [27]
  IC50: 149 µM
HeLa [28]
  inhibition: Active
[29]
  IC50: 7.15 µM
HGC-27 [30]
  Activity: Active
HGC-27 [31]
  Activity: 60.1%
HGC-27 [32]
  Activity: Active
MDCK [33]
  IC50: 70.2 µM
HeLa [34]
  IC50: 34.6 µM
[35]
  IC50: 9.74 µM

Source: ChEMBL document CHEMBL3797180, “Squaramides with cytotoxic activity against human gastric carcinoma cells HGC-27: synthesis and mechanism of action” (Medchemcomm, 2016)
